Data taken from patent US20250145639A1, “MUTANT KRAS MODULATORS AND USES THEREOF” (NEWAVE PHARMACEUTICAL INC., priority 2021, published 2025).
pIC50: −log10 of the molar value.

Key:
[1] = biological target: T1, HIS-KRAS (G12C, aa 2-185) (Homo sapiens, UniProt P01116, G12C); test: KRas G12C binding assay (TR-FRET, SOS1-mediated BODIPY FL GTP nucleotide exchange); conditions: GDP-loaded HIS-KRAS (G12C) 3 nM, 1 hour pre-incubation with compound, 4 hours with SOS1 ExD and BODIPY FL GTP at 25° C
T1 construct: HIS-KRAS (G12C, aa 2-185, Sino biological); purchased Sino biological
Description: Biological Example 1: KRas G12C Binding Assay
(§1) HIS-KRAS (G12C, aa 2-185, Sino biological) was diluted to 5 uM in EDTA buffer (20 mM HEPES, pH 7.4, 50 mM NaCl, 10 mM EDTA, 0.01% (v/v) Tween-20) and incubated for 30 min at 25° C. The EDTA pretreated HIS-KRAS (G12C) was diluted to 12 nM in assay buffer (25 mM HEPES, pH 7.4, 120 mM NaCl, 5 mM MgCl 2, 1 mM DTT, 0.01% (v/v) Tween 20, 0.1% (w/v) BSA) containing 120 nM GDP (Sigma) and MAb Anti 6HIS—Tb cryptate Gold (Cisbio) and incubated for 1 hour at 25° C. to prepare GDP-loaded HIS-KRAS (G12C). The GDP-loaded HIS-KRAS (G12C) was pre-incubation with diluted compounds in a 384-well plate (Greiner) for 1 hour, then purified SOS1 ExD (Flag tag, aa 564-1049) and BODIPY™ FL GTP (Invitrogen) were added to the assay wells (Final concentration: 3 nM HIS-KRAS (G12C), 2 uM SOS1 ExD, 80 nM BODIPY™ FL GTP, 21 ng/mL MAb Anti 6HIS—Tb cryptate Gold) and incubated for 4 hours at 25° C. TR-FRET signals were then read on Tecan Spark multimode microplate reader. The parameters were F486: Excitation 340 (35) nm, Emission 486 (10) nm, Lag time 100 μs, Integration time 200 μs; F515: Excitation 340 (35) nm, Emission 515 (10) nm, Lag time 100 μs, Integration time 200 μs. TR-FRET ratios for each individual wells were calculated by equation: TR-FRET ratio=(Signal F515/Signal F486)*10000. Then the data were analyzed using a 4-parameter logistic model to calculate IC50 values. The following table lists the IC50 values of certain compounds of the invention.

HIS-KRAS (G12V) = HIS-KRAS (G12V) (Homo sapiens, UniProt P01116, G12V); test: KRas G12V binding assay (TR-FRET, SOS1-mediated BODIPY FL GTP nucleotide exchange); conditions: GDP-loaded HIS-KRAS (G12V) 3 nM, 1 hour pre-incubation with compound, 4 hours with SOS1 ExD and BODIPY FL GTP at 25° C
Description: Biological Example 3: KRas G12V Binding Assay
as §1, with “(G12V)” for “(G12C, aa 2-185, Sino biological)”, “(G12V)” for “(G12C)”, “(G12V).” for “(G12C).”, “(G12V),” for “(G12C),”

[2] = biological target: T2, GDP-loaded, histidine-tagged, truncated (1-169) KRAS G12C (Homo sapiens, UniProt P01116, G12C); test: KRas G12C in vitro covalent MS-based assay; assay type: binding; conditions: KRAS protein 2 uM, denaturing SEC-MS intact mass
T2 construct: histidine-tagged, truncated (1-169) KRAS proteins; His
Description: Biological Example 2: KRas G12C In Vitro Covalent MS-Based Assay
GDP-loaded, histidine-tagged, truncated (1-169) KRAS proteins (G12C, WT, G13D, as indicated) at 2 uM final concentration were incubated with the test compounds at the doses and time points indicated in a buffer containing 20 mmol/L HEPES pH 7.5, 150 mmol/L NaCl, 1 mmol/L MgCl 2, and 1 mmol/L DTT. Reactions were quenched by adding formic acid to 0.2%. Samples were buffer exchanged and analyzed by denaturing SEC-MS (Orbitrap Eclipse), Mobile phase: 30% ACN, 0.1% formic acid, 0.02% TFA. Raw data were analyzed by charge state deconvolution with BioPharma Finder 4.1 Intact Mass, ReSpect and Sliding Window algorithms. The masses were calculated via software for KRAS_G12C theoretical sequence and experimental compounds.

T1 sequence (P01116 2-185 isoform P01116-2 G12C): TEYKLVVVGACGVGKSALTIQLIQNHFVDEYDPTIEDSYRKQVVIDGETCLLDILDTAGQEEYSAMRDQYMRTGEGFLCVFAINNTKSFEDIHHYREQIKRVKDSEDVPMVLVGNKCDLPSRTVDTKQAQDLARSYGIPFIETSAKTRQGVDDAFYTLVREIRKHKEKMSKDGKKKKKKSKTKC
Sequence of HIS-KRAS (G12V) (P01116 1-188 isoform P01116-2 G12V): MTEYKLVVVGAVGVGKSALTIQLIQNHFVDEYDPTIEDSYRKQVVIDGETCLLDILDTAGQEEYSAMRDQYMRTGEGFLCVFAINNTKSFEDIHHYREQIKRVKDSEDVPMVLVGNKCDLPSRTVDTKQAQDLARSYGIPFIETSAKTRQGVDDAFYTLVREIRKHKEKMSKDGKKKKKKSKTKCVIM
T2 sequence (P01116 1-169 isoform P01116-2 G12C): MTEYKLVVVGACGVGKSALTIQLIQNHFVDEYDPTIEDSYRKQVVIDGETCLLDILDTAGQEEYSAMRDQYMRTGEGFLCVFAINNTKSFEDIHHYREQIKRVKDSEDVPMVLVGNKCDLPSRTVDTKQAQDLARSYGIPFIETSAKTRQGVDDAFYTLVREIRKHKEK

SMILES | pIC50 [1] | pIC50 (HIS-KRAS (G12V)) | Binding Model [2]
C#Cc1cccc2cc(O)cc(-c3ncc4c(N5CC6CCC(C5)N6C(=O)C=C)nc(OC[C@@]56CCCN5C[C@H](F)C6)nc4c3F)c12 [Example 1, 1-[3-(2-{[(2R,7aS)-2-fluoro-hexahydropyrrolizin-7a-yl]methoxy}-7-(8-ethynyl-3-hydroxynaphthalen-1-yl)-8-fluoropyrido[4,3-d]pyrimidin-4-yl)-3,8-diazabicyclo[3.2.1]octan-8-yl]prop-2-en-1-one] | 7.98 | 8.36 | –
C#Cc1c(F)ccc2cc(O)cc(-c3ncc4c(N(C)C[C@@H]5CCCN5C(=O)C=C)nc(OC[C@@]56CCCN5C[C@H](F)C6)nc4c3F)c12 [Example 2, 1-[(2S)-2-{[(2-{[(2R,7aS)-2-fluoro-hexahydropyrrolizin-7a-yl]methoxy}-7-(8-ethynyl-7-fluoro-3-hydroxynaphthalen-1-yl)-8-fluoropyrido[4,3-d]pyrimidin-4-yl)(methyl)amino]methyl}pyrrolidin-1-yl]prop-2-en-1-one] | 9.39 | 9.27 | Covalent binding
C#Cc1c(F)ccc2cccc(-c3ncc4c(N5C[C@H]6CC[C@@H](C5)N6C(=O)C=C)nc(OCC56CCCN5CCC6)nc4c3F)c12 [Example 3, 1-((1R,5S)-3-(7-(8-ethynyl-7-fluoronaphthalen-1-yl)-8-fluoro-2-((tetrahydro-1H-pyrrolizin-7a(5H)-yl)methoxy)pyrido[4,3-d]pyrimidin-4-yl)-3,8-diazabicyclo[3.2.1]octan-8-yl)prop-2-en-1-one] | 8.50 | 7.41 | –
C#Cc1c(F)ccc2cc(O)cc(-c3ncc4c(N5C[C@H]6CC[C@@H](C5)N6C(=O)C=C)nc(N5CC(N(C)C)C5)nc4c3F)c12 [Example 4, 1-((1R,5S)-3-(2-(3-(dimethylamino)azetidin-1-yl)-7-(8-ethynyl-7-fluoro-3-hydroxynaphthalen-1-yl)-8-fluoropyrido[4,3-d]pyrimidin-4-yl)-3,8-diazabicyclo[3.2.1]octan-8-yl)prop-2-en-1-one] | 8.48 | 7.02 | –
C#Cc1c(F)ccc2cc(O)cc(-c3ncc4c(N5C[C@H]6CC[C@@H](C5)N6C(=O)C=C)nc(OCC56CCCN5CCC6)nc4c3F)c12 [Example 5, 1-((1R,5S)-3-(7-(8-ethynyl-7-fluoro-3-hydroxynaphthalen-1-yl)-8-fluoro-2-((tetrahydro-1H-pyrrolizin-7a(5H)-yl)methoxy)pyrido[4,3-d]pyrimidin-4-yl)-3,8-diazabicyclo[3.2.1]octan-8-yl)prop-2-en-1-one] | 9.43 | 9.72 | Covalent binding
C#Cc1c(F)ccc2cc(O)cc(-c3ncc4c(N5C[C@H]6CC[C@@H](C5)N6C(=O)C=C)nc(OC[C@@H]5CCCN5C)nc4c3F)c12 [Example 6, 1-((1R,5S)-3-(7-(8-ethynyl-7-fluoro-3-hydroxynaphthalen-1-yl)-8-fluoro-2-(((S)-1-methylpyrrolidin-2-yl)methoxy)pyrido[4,3-d]pyrimidin-4-yl)-3,8-diazabicyclo[3.2.1]octan-8-yl)prop-2-en-1-one] | 9.44 | 9.42 | –
C#Cc1c(F)ccc2cc(O)cc(-c3ncc4c(N5C[C@H]6CC[C@@H](C5)N6C(=O)C=C)nc(OC[C@@H]5CCCCN5C)nc4c3F)c12 [Example 7, 1-((1R,5S)-3-(7-(8-ethynyl-7-fluoro-3-hydroxynaphthalen-1-yl)-8-fluoro-2-(((S)-1-methylpiperidin-2-yl)methoxy)pyrido[4,3-d]pyrimidin-4-yl)-3,8-diazabicyclo[3.2.1]octan-8-yl)prop-2-en-1-one] | 9.39 | 8.23 | –
C#Cc1c(F)ccc2cc(O)cc(-c3ncc4c(NCC5(N(C)C(=O)C=C)CCC5)nc(OCC56CCCN5CCC6)nc4c3F)c12 [Example 10, N-(1-(((7-(8-ethynyl-7-fluoro-3-hydroxynaphthalen-1-yl)-8-fluoro-2-((tetrahydro-1H-pyrrolizin-7a(5H)-yl)methoxy)pyrido[4,3-d]pyrimidin-4-yl)amino)methyl)cyclobutyl)-N-methylacrylamide] | 8.57 | 8.29 | –
C#Cc1c(F)ccc2cc(O)cc(-c3ncc4c(NCC5(N(C)C(=O)C=C)CCCC5)nc(OCC56CCCN5CCC6)nc4c3F)c12 [Example 11, N-(1-(((7-(8-ethynyl-7-fluoro-3-hydroxynaphthalen-1-yl)-8-fluoro-2-((tetrahydro-1H-pyrrolizin-7a(5H)-yl)methoxy)pyrido[4,3-d]pyrimidin-4-yl)amino)methyl)cyclopentyl)-N-methylacrylamide] | 8.80 | 8.46 | –
C#Cc1c(F)ccc2cc(O)cc(-c3ncc4c(N5C[C@H]6CC[C@@H](C5)N6C(=O)C=C)nc(OC[C@]5(C)CCCN5C)nc4c3F)c12 [Example 12, 1-((1R,5S)-3-(2-(((S)-1,2-dimethylpyrrolidin-2-yl)methoxy)-7-(8-ethynyl-7-fluoro-3-hydroxynaphthalen-1-yl)-8-fluoropyrido[4,3-d]pyrimidin-4-yl)-3,8-diazabicyclo[3.2.1]octan-8-yl)prop-2-en-1-one] | 8.82 | 7.30 | –
C#Cc1c(F)ccc2cc(O)cc(-c3ncc4c(N5C[C@H]6CC[C@@H](C5)N6C(=O)C=C)nc(OC[C@]5(C)C[C@@H](F)CN5C)nc4c3F)c12 [Example 13, 1-((1R,5S)-3-(7-(8-ethynyl-7-fluoro-3-hydroxynaphthalen-1-yl)-8-fluoro-2-(((2S,4R)-4-fluoro-1,2-dimethylpyrrolidin-2-yl)methoxy)pyrido[4,3-d]pyrimidin-4-yl)-3,8-diazabicyclo[3.2.1]octan-8-yl)prop-2-en-1-one] | 9.02 | 7.86 | –
C#Cc1c(F)ccc2cc(O)cc(-c3ncc4c(N5C[C@H]6CC[C@@H](C5)N6C(=O)C=C)nc(OC[C@@]5(C)C[C@@H](F)CN5C)nc4c3F)c12 [Example 14, 1-((1R,5S)-3-(7-(8-ethynyl-7-fluoro-3-hydroxynaphthalen-1-yl)-8-fluoro-2-(((2R,4R)-4-fluoro-1,2-dimethylpyrrolidin-2-yl)methoxy)pyrido[4,3-d]pyrimidin-4-yl)-3,8-diazabicyclo[3.2.1]octan-8-yl)prop-2-en-1-one] | 9.00 | – | –
